According to patent US7064120B2, “Tricyclic pyridyl carboxamides and derivatives thereof tocolytic oxytocin receptor antagonists” (Wyeth, priority 2001, dated 2006):

These compounds were tested against T1, human vasopressin V2 receptor subtype (Homo sapiens, UniProt P30518) (assay: Vasopressin binding in CHO cell membranes expressing human vasopressin V2 subtype receptors ([3H]arginine vasopressin radioligand binding)). Details: 100 nM.
T1 construct: host or cells: CHO cells, stably transfected (pZeoSV vector)
T1 sequence (P30518 whole entry): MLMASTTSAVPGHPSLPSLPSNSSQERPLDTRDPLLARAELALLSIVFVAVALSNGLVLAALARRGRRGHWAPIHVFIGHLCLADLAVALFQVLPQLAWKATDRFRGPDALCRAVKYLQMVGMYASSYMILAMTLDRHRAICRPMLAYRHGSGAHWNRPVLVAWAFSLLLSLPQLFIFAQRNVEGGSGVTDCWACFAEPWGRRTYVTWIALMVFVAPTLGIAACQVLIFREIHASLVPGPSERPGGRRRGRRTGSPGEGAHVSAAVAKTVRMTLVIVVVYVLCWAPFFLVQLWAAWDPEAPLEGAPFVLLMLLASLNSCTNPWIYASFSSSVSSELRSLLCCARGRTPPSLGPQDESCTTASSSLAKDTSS
Experimental: Vasopressin Binding in Chinese Hamster Ovary Cell Membranes Expressing Human Vasopressin V2 Subtype Receptors
Chinese Hamster Ovary (CHO) cells stably transfected with the human V2 subtype receptors were obtained from M. Thibonnier, Case Western Reserve University School of Medicine, Cleveland, Ohio.
The trypsin is removed by aspiration and the cells dislodged by tapping. Cell Culture medium (e.g. 30 mL for 1:30 split) is immediately added and mixed well to inactivate trypsin. 1 mL of detached cells is added to new culture flasks containing fresh Cell Culture medium (e.g. into 25 mL per T-150 flask), and mixed gently. The cells are incubated at 37° C. in 5% CO2. The medium is changed at 3 to 4 day interval (or as appropriate). […] All steps are done under sterile conditions.
The cells are washed twice gently with Hank's Balanced Salt solution (e.g. use 10 mL per T-150 flask). […] The contents are transferred to centrifuge tubes (50 mL) kept in ice bath. All subsequent steps are done at 4° C. The tubes are centrifuged at 300×g for 15 min (1380 rpm on SORVAL, Model RT6000D, using the rotor for 50 mL tubes). The supernatant is discarded and the cells suspended in homogenizing buffer(10 mM Tris-HCl containing 0.25 M sucrose and 1 mM EDTA, pH 7.4) ensuring that the volume of the buffer is about ten times the volume of the cell pellet. The cells are pooled into a centrifuge tube (50 mL) and homogenized with Polytron at setting 6 for 10 sec. The homogenate is transferred into a Potter-Elvjehm homogenizer and homogenized with 3 strokes. The homogenate is centrifuged at 1500×g for 60 min at 4° C. (3100 rpm using SORVAL, model RT6000D, using the rotor for 50 mL tubes). The pellet is discarded. The supernatant is centrifuged at 100,000×g for 60 min. at 4° C. (Beckman L8-80M ultracentrifuge; spin at 37,500 rpm with rotor type 70 Ti for 50 mL tubes; 38,000 rpm with type 80Ti for 15 mL tubes; or 35,800 rpm with rotor type 45Ti). The supernantant is discarded and the pellet suspended in 3 to 4 mL of Tris buffer (50 mM TRIS-HCl, pH 7.4). The protein content is estimated by the Bradford or Lowry method. The volume of the membrane suspension is adjusted with the membrane buffer (50 mM Tris-HCl containing 0.1% BSA and 0.1 mM PMSF) to give 3.0 mg/mL (or as appropriate) of protein. The membranes are aliquoted and stored at −70° C.
In wells of a 96-well format microtiter plate, is added 90, 110 or 130 μL (to make up a final volume of 200 μL) of assay buffer containing 50 mM of Tris-HCl (pH 7.4), […], 1 mg % aprotinin, 1 mg % leupeptin, 2 mg % 1,10-phenanthroline, 10 mg % trypsin inhibitor, and 0.1 mM PMSF. The inhibitors are added on the day of the experiment. The components are mixed at room temperature, and then kept in ice bath following adjustment of the pH to 7.4. […] For vasopressin and other peptide ligands 20 μL of 50% DMSO is added and the assay buffer volume is adjusted accordingly. To each well is added 50 μL of frozen membrane suspension thawed immediately prior to use and diluted in assay buffer to the required concentration (equivalent to 25 to 50 μg of protein/well as needed). 20 μL of 8 nM [^3H]arginine vasopressin ligand in the assay buffer, prepared just before use is added and incubated at room temperature for 60 min. shaking the plate on a mechanical shaker for the first 15 min. The incubation is stopped by rapid filtration of the plate contents followed by wash with ice-cold buffer (50 mM Tris-HCl, pH 7.4) using a cell harvester (Tomtek and Printed filtermat-B filter paper). The filter paper is thoroughly dried (7–12 min. in a microwave oven) and impregnated with MeltiLex B/H melt-on scintillation wax sheets and the radioactivity counted in a betaplate scintillation counter.
Binding data is either reported as percent inhibition at a certain concentration or if an IC50 was calculated, as a nanomolar concentration.
In the case of `COc1ccccc1-c1ccc(C(=O)N2Cc3ccc(C(=O)NCc4cccnc4)n3Cc3ccccc32)cc1` [Example 39, 10-[(2′-Methoxy-[1,1′-biphenyl]-4-yl)carbonyl]-N-(3-pyridinylmethyl)-10,11-dihydro-5H-pyrrolo[2,1-c][1,4]benzodiazepine-3-carboxamide], the inhibition at 0.1 µM is reported as 11%. `Cc1ccccc1-c1ccc(C(=O)N2Cc3ccc(C(=O)N(C)CCc4ccncc4)n3Cc3ccccc32)cc1C` [Example 127, 10-[(2,2′-Dimethyl-[1,1′-biphenyl]-4-yl)carbonyl]-N-methyl-N-[2-(4-pyridinyl)ethyl]-10,11-dihydro-5H-pyrrolo[2,1-c][1,4]benzodiazepine-3-carboxamide] gave an inhibition at 0.1 µM of 15%. `COc1cc(-c2ccccc2C)c(Cl)cc1C(=O)N1Cc2ccc(C(=O)N3CCN(c4ccncc4)CC3)n2Cc2ccccc21` [Example 119, {10-[(6-Chloro-3-methoxy-2′-methyl-[1,1′-biphenyl]-4-yl)carbonyl]-10,11-dihydro-5H-pyrrolo[2,1-c][1,4]benzodiazepin-3-yl}[4-(4-pyridinyl)-1-piperazinyl]methanone] gave an inhibition at 0.1 µM of 17%. Compound `COc1cc(C(=O)N2Cc3ccc(C(=O)N(C)Cc4cccnc4)n3Cc3ccccc32)ccc1-c1cccc2ccccc12` [Example 109, 10-[3-Methoxy-4-(naphthalen-1-yl)benzoyl]-N-methyl-N-(3-pyridinylmethyl)-10,11-dihydro-5H-pyrrolo[2,1-c][1,4]benzodiazepine-3-carboxamide] has an inhibition at 0.1 µM of 0%. In the case of `COc1cccc(-c2ccc(C(=O)N3Cc4ccc(C(=O)N(C)CCc5ccncc5)n4Cc4ccccc43)cc2OC)c1` [Example 135, 10-[(2,3′-Dimethoxy-[1,1′-biphenyl]-4-yl)carbonyl]-N-methyl-N-[2-(4-pyridinyl)ethyl]-10,11-dihydro-5H-pyrrolo[2,1-c][1,4]benzodiazepine-3-carboxamide], the inhibition at 0.1 µM is reported as 35%. `COc1cc(C(=O)N2Cc3ccc(C(=O)N(C)CCc4ccncc4)n3Cc3ccccc32)ccc1-n1c(C)ccc1C` [Example 147, 10-[4-(2,5-Dimethyl-1H-pyrrol-1-yl)-3-methoxybenzoyl]-N-methyl-N-[2-(pyridin-4-yl)ethyl]-10,11-dihydro-5H-pyrrolo[2,1-c][1,4]benzodiazepine-3-carboxamide] was tested, and the inhibition at 0.1 µM was 21%. Work on `COc1ccccc1-c1ccc(C(=O)N2Cc3ccc(C(=O)N4CCN(c5ccncc5)CC4)n3Cc3ccccc32)cc1OC` [Example 122, {10-[(2,2′-Dimethoxy-[1,1′-biphenyl]-4-yl)carbonyl]-10,11-dihydro-5H-pyrrolo[2,1-c][1,4]benzodiazepin-3-yl}[4-(4-pyridinyl)-1-piperazinyl]methanone] yielded an inhibition at 0.1 µM of -10%. In the case of `Cc1cc(C(=O)N2Cc3ccc(C(=O)NCCc4ccccn4)n3Cc3ccccc32)ccc1-c1ccccc1C(F)(F)F` [Example 61, 10-{[2-Methyl-2′-trifluoromethyl=[1,1′-biphenyl]-4-yl]carbonyl}-N-[2-(2-pyridinyl)ethyl]-10,11-dihydro-5H-pyrrolo[2,1-c][1,4]benzodiazepine-3-carboxamide], the “V2 % inhibition @ 100 nM” value is reported as 14%. Work on `COc1cccc(-c2cc(OC)c(C(=O)N3Cc4ccc(C(=O)NCCc5ccccn5)n4Cc4ccccc43)cc2Cl)c1` [Example 56, 10-[(6-Chloro-3,3′-dimethoxy-[1,1′-biphenyl]-4-yl)carbonyl]-N-[2-(2-pyridinyl)ethyl]-10,11-dihydro-5H-pyrrolo[2,1-c][1,4]benzodiazepine-3-carboxamide] yielded an inhibition at 0.1 µM of 11%. `COc1cc(C(=O)N2Cc3ccc(C(=O)NCc4ccccn4)n3Cc3ccccc32)ccc1-c1ccccc1C` [Example 28, 10-[(2-Methoxy-2′-methyl-[1,1′-biphenyl]-4-yl)carbonyl]-N-(2-pyridinylmethyl)-10,11-dihydro-5H-pyrrolo[2,1-c][1,4]benzodiazepine-3-carboxamide] was tested, and the inhibition at 0.1 µM was 20%. With `COc1cc(C(=O)N2Cc3ccc(C(=O)N4CCN(c5ccncc5)CC4)n3Cc3ccccc32)ccc1-c1cccc2ccccc12` [Example 121, {10-[3-Methoxy-4-(naphthalen-1-yl)benzoyl]-10,11-dihydro-5H-pyrrolo[2,1-c][1,4]benzodiazepin-3-yl}[4-(4-pyridinyl)-1-piperazinyl]methanone] the inhibition at 0.1 µM was -4%. With `COc1cccc(-c2cc(OC)c(C(=O)N3Cc4ccc(C(=O)NCc5ccccn5)n4Cc4ccccc43)cc2Cl)c1` [Example 30, 10-[(6-Chloro-3,3′-dimethoxy-[1,1′-biphenyl]-4-yl)carbonyl]-N-(2-pyridinylmethyl)-10,11-dihydro-5H-pyrrolo[2,1-c][1,4]benzodiazepine-3-carboxamide] the inhibition at 0.1 µM was 14%. `COc1cc(C(=O)N2Cc3ccc(C(=O)N(C)Cc4cccnc4)n3Cc3ccccc32)ccc1-c1ccccc1C` [Example 106, 10-[(2-Methoxy-2′-methyl-[1,1′-biphenyl]-4-yl)carbonyl]-N-methyl-N-(3-pyridinylmethyl)-10,11-dihydro-5H-pyrrolo[2,1-c][1,4]benzodiazepine-3-carboxamide] was tested, and the inhibition at 0.1 µM was -10%. Compound `O=C(c1ccc2n1Cc1ccccc1N(C(=O)c1ccc(-c3cccc4ccccc34)cc1Cl)C2)N1CCN(c2ccncc2)CC1` [Example 124, {10-[2-Chloro-4-(naphthalen-1-yl)benzoyl]-10,11-dihydro-5H-pyrrolo[2,1-c][1,4]benzodiazepin-3-yl}[4-(4-pyridinyl)-1-piperazinyl]methanone] has an inhibition at 0.1 µM of 18%. `COc1cccc(-c2ccc(C(=O)N3Cc4ccc(C(=O)NCc5ccccn5)n4Cc4ccccc43)cc2C)c1` [Example 25, 10-[(3′-Methoxy-2-methyl-[1,1′-biphenyl]-4-yl)carbonyl]-N-(2-pyridinylmethyl)-10,11-dihydro-5H-pyrrolo[2,1-c][1,4]benzodiazepine-3-carboxamide] showed an inhibition at 0.1 µM of 33%. For `COc1cc(C(=O)N2Cc3ccc(C(=O)N4CCN(c5ccncc5)CC4)n3Cc3ccccc32)ccc1-c1ccccc1C` [Example 118], the “V2 % inhibition @ 100 nM” value was −10%. Compound `COc1cc(C(=O)N2Cc3ccc(C(=O)NCc4cccnc4)n3Cc3ccccc32)ccc1-c1cccc2ccccc12` [Example 44, 10-[3-Methoxy-4-(naphthalen-1-yl)benzoyl]-N-(3-pyridinylmethyl)-10,11-dihydro-5H-pyrrolo[2,1-c][1,4]benzodiazepine-3-carboxamide] has an inhibition at 0.1 µM of 31%. For `COc1cc(-c2ccccc2C)c(Cl)cc1C(=O)N1Cc2ccc(C(=O)N(C)Cc3cccnc3)n2Cc2ccccc21` [Example 107, 10-[(6-Chloro-3-methoxy-2′-methyl-[1,1′-biphenyl]-4-yl)carbonyl]-N-methyl-N-(3-pyridinylmethyl)-10,11-dihydro-5H-pyrrolo[2,1-c][1,4]benzodiazepine-3-carboxamide], the inhibition at 0.1 µM was 30%. `COc1cccc(-c2ccc(C(=O)N3Cc4ccc(C(=O)NCc5ccncc5)n4Cc4ccccc43)cc2OC)c1` [Example 98] was tested, and the “V2 % inhibition @ 100 nM” value was 10%. Work on `COc1ccccc1-c1ccc(C(=O)N2Cc3ccc(C(=O)NCc4cccnc4)n3Cc3ccccc32)cc1C` [Example 36, 10-[(2′-Methoxy-2-methyl-[1,1′-biphenyl]-4-yl)carbonyl]-N-(3-pyridinylmethyl)-10,11-dihydro-5H-pyrrolo[2,1-c][1,4]benzodiazepine-3-carboxamide] yielded an inhibition at 0.1 µM of 24%.
